Reference: US8871280B1, “Compositions and methods for treating fungal activity in plants or soil” (The United States of America, as represented by the …, priority 2011, dated 2014)

Key:
Rhizoctonia solani [1] = experiment: Poison food technique (contact action), mycelial growth inhibition in PDA; format: cell-based, Rhizoctonia solani AG-4, isolate Rs 23A; settings: for PoisonB1 % inhibition: poison bed experiment 1; for PoisonB2 % inhibition: poison bed experiment 2
Description: (§1) Fungal isolate and preparation of inoculum: Rhizoctonia solani AG-4, isolate Rs 23A is a highly virulent pathogenic isolate which infects many vegetables, ornamentals and turfgrasses (Lewis, J. A., and G. C. Papavizas, Soil Biology and Biochemistry, 9:195-201 (1987)). The fungus was grown in potato dextrose agar (PDA) plates and fungal plugs from the freshly growing mycelium were mixed with moist sterilized cracked wheat in a 2 L flask for 15 days in dark at 22° C. (Lakshman, D. K., et al., Proceedings of the National Academy of Science, USA, 95: 6425-6429 (1998)). The infested wheat was air dried in a sterile hood for 3 days, blended in a homogenizer and sieved through a mesh and stored at 2° C. before soil inoculation. A dose response of the inocula was carried out by thoroughly mixing using 0.25, 0.5, 0.75, 1.0, 1.25 and 1.50 g inoculums per Kg dry weight potting soil plus sterile water to maintain 25-30% moisture and incubating at room temperature for two weeks before sowing cucumber (cv muncher) seeds with the infested soil. The percent germination and post-emergence damping off of cucumber seedlings were recorded. The lowest inoculums dose that induced 100% postemergence damping off was estimated to be 1 to 1.25 g/Kg soil for inocula prepared over the span of the experiments. For soil fumigation with plant extracts (PEs), each time the minimum inoculum dose giving rise to 100% damping off was used.
In vitro bioassays: Two in vitro bioassay methods were used to investigate the mycelial growth inhibitory potentials of PEs. In the poison food technique, test chemical/plant extract was mixed at concentrations of 15, 30, 45, 60, 75, and 150 μl per 20 ml autoclaved PDA at 50° C., poured on three sterile disposable plastic plates (100×15 mm, Fisherbrand) at 20 ml/plate and cooled to room temperature to solidify (Dhingra, O.D., and J. B. Sinclair, 1995, Basic Plant Pathology Methods, 2nd Edition, Lewis Publishers, Boca Raton and London). […] Each plate was seeded in the center with a 5 mm diameter agar disk of the freshly grown Rhizoctonia pathogen, mycelial side facing the medium, and sealed with stretched Parafilm® M (Fisher Scientific). The plates were incubated in the dark at room temperature and when the pathogen reached to the edge of the plates in the control treatment (soybean oil), radial measurement of fungal growth in plates treated with PEs were recorded by taking three measurements from each plate. The experiment was repeated one more time. The percent mycelial growth inhibition (MGI) due to PE was calculated using the following formula: […] where dc=Avg. radial growth in mm of pathogen in control plate; dt=avg. radial growth in mm of pathogen in treated plate.

Rhizoctonia solani [2] = experiment: Filter disk fumigation method, mycelial growth inhibition on PDA; format: cell-based, Rhizoctonia solani AG-4, isolate Rs 23A; settings: for Fumig1 % inhibition: fumigation experiment 1; for Fumig2 % inhibition: fumigation experiment 2
Description: as §1
In the second protocol, the chemical was kept not in direct contact with the fungus and we hypothesized that the plant extract will most likely influence the growth of the pathogen by fumigation action. In this approach, three sterile 15 mm filter paper (Whatman International Ltd, Maidstone, UK) disks were placed on the edge of each of three plates on the PDA. Each disk was impregnated in the center with various amounts (5-50 ul/disk) of the test solution/suspension. For negative control, only soybean oil was placed in the filter disk. […] The average radial growth was calculated and the experiment was repeated one more time. Percent growth inhibition was calculated as reported for poison bed assay.

Rhizoctonia solani [3] = experiment: Fungicidal vs fungistatic potential (regrowth of mycelial plugs on fresh PDA, 7 days); format: cell-based, Rhizoctonia solani AG-4, isolate Rs 23A; settings: in vitro, fumigation and contact, all concentrations tested
Description: The fungicidal and fungistatic potential of the PEs were determined by the method described by Garber and Houstan (Garber R. H., and B. R. Houston, Phytopathology, 49: 449-450 (1959)). In brief, three 5 mm diameter plugs were taken from the peripheral mycelial growth from each plate and placed in a fresh PDA plate. Following incubation at room temperature for 7 days, observations were recorded for new mycelial growth (fungistatic) or no mycelial growth (fungicidal). As control, peripheral mycelial plugs from soybean oil amended PDA plates were checked for fresh mycelial growth in fresh PDA plates.

Rhizoctonia solani [4] = experiment: Greenhouse suppression of damping off of cucumber seedlings in R. solani infested soil amended with plant extract; format: in vivo, Rhizoctonia solani AG-4, isolate Rs 23A; settings: for % Disease suppression (+ PE + R. solani): cucumber damping off, soil amendment at 0.3% (v/w), four weeks after sowing
cucumber seeds = experiment: Greenhouse assay of seed germination and phytotoxicity, soil treated with plant extract alone; settings: cucumber, in vivo, 0.3 % of PE in soil (3000 ppm)
Description: Soil treatment: For each treatment, 300 g of dry greenhouse soli (Pro-mix, Premier Horticulture LTD, Red Hill, Pa.) was thoroughly mixed with Rhizoctonia inoculum and incubated for 15 days as described above. […] The infested soil treated with only the carrier solution served as an untreated control. Following the treatment, the soil was thoroughly stirred to mix the contents and incubated in a double polythene bag closed tightly in the dark at room temperature for four days for fumigation to occur. Following the incubation, the bag was opened to allow as much PE to dissipate as possible. This was done by sprinkling the surface soil with sterile water every other day, and stirring the soil once every day for seven days. For assay of effect on seed germination and phytotoxicity of the plant extracts, soil was treated with plant extract formulations alone.
Greenhouse studies: Treated soil from each treatment was distributed to 4-inch plastic pots into which 12 seeds of cucumbers (95-100% germination) were sown and lightly watered to keep soil moist. The treatments were color coded and pots were randomized across treatment. All plants were kept in a greenhouse between 20° C. (night) to 26° C. (day) with 14 h of light. There were three pots per treatment in each experiment, and the experiment was repeated three times. As positive control, a broad spectrum popular soil fungicide Banrot® 40 WP (The Scotts Company, Ohio) was used following manufacturer's recommendation to control the disease. Total number of seedlings without any sign of damping off in each pot was recorded and percentage of disease suppression were calculated four weeks after sowing cucumber seeds.

C=CCN=C=S [Allyisothiocynate]
Inhibition of R. solani growth by contact (poison bed assay), in words (Rhizoctonia solani [1]; in vitro, PDA): potent inhibitors | Inhibition of R. solani growth by fumigation action, in words (Rhizoctonia solani [2]; in vitro, filter disk): potent inhibitors | Fungicidal vs fungistatic nature at all concentrations tested (Rhizoctonia solani [3]): fungicidal | % Disease suppression (+ PE + R. solani) (Rhizoctonia solani [4]): 88.92%

C=CCN=C=S [Allylisothiocyanate]
PoisonB1 % inhibition (Rhizoctonia solani [1]; amount oil 15 μL/20 mL plate): 100% | PoisonB2 % inhibition (Rhizoctonia solani [1]; amount oil 15 μL/20 mL plate): 100% | PoisonB1 % inhibition (Rhizoctonia solani [1]; amount oil 30 μL/20 mL plate): 100% | PoisonB2 % inhibition (Rhizoctonia solani [1]; amount oil 30 μL/20 mL plate): 100% | PoisonB1 % inhibition (Rhizoctonia solani [1]; amount oil 45 μL/20 mL plate): 100% | PoisonB2 % inhibition (Rhizoctonia solani [1]; amount oil 45 μL/20 mL plate): 100% | PoisonB1 % inhibition (Rhizoctonia solani [1]; amount oil 60 μL/20 mL plate): 100% | PoisonB2 % inhibition (Rhizoctonia solani [1]; amount oil 60 μL/20 mL plate): 100% | PoisonB1 % inhibition (Rhizoctonia solani [1]; amount oil 75 μL/20 mL plate): 100% | PoisonB2 % inhibition (Rhizoctonia solani [1]; amount oil 75 μL/20 mL plate): 100% | PoisonB1 % inhibition (Rhizoctonia solani [1]; amount oil 150 μL/20 mL plate): 100% | PoisonB2 % inhibition (Rhizoctonia solani [1]; amount oil 150 μL/20 mL plate): 100% | Fumig1 % inhibition (Rhizoctonia solani [2]; amount oil 15 μL/20 mL plate): 100% | Fumig2 % inhibition (Rhizoctonia solani [2]; amount oil 15 μL/20 mL plate): 100% | Fumig1 % inhibition (Rhizoctonia solani [2]; amount oil 30 μL/20 mL plate): 100% | Fumig2 % inhibition (Rhizoctonia solani [2]; amount oil 30 μL/20 mL plate): 100% | Fumig1 % inhibition (Rhizoctonia solani [2]; amount oil 45 μL/20 mL plate): 100% | Fumig2 % inhibition (Rhizoctonia solani [2]; amount oil 45 μL/20 mL plate): 100% | Fumig1 % inhibition (Rhizoctonia solani [2]; amount oil 60 μL/20 mL plate): 100% | Fumig2 % inhibition (Rhizoctonia solani [2]; amount oil 60 μL/20 mL plate): 100% | Fumig1 % inhibition (Rhizoctonia solani [2]; amount oil 75 μL/20 mL plate): 100% | Fumig2 % inhibition (Rhizoctonia solani [2]; amount oil 75 μL/20 mL plate): 100% | Fumig1 % inhibition (Rhizoctonia solani [2]; amount oil 150 μL/20 mL plate): 100% | Fumig2 % inhibition (Rhizoctonia solani [2]; amount oil 150 μL/20 mL plate): 100%

C=CCc1ccc(O)c(OC)c1 [Eugenol]
Avg. seed germination (+ PE only) (cucumber seeds): 10.00 | % Disease suppression (+ PE + R. solani) (Rhizoctonia solani [4]): 44.42% | Avg. seed Germination (+ PE + R. solani) (Rhizoctonia solani [4]; cucumber, 12 seeds sown per pot, infested soil amended with 0.3% PE): 5.33
